{
  "source": "patent US20210038579A1",
  "about": "“Treatment Of Patients With Classic Fabry Disease” (Amicus Therapeutics, Inc., priority 2018, published 2021)",
  "assay_in_all_cases": "HEK assay: α-Gal A activity in HEK-293 cell lysate with migalastat",
  "format_in_all_cases": "cell-based",
  "key": {"[1]": {"molecular_target": "T1, α-Gal A mutant form p.Pro259Arg (c.776 C > G) (Homo sapiens, UniProt P06280, P259R)", "T1 construct": "expressed in transfected cells; host or cells: HEK-293", "T1 sequence (P06280 32-429 P259R)": "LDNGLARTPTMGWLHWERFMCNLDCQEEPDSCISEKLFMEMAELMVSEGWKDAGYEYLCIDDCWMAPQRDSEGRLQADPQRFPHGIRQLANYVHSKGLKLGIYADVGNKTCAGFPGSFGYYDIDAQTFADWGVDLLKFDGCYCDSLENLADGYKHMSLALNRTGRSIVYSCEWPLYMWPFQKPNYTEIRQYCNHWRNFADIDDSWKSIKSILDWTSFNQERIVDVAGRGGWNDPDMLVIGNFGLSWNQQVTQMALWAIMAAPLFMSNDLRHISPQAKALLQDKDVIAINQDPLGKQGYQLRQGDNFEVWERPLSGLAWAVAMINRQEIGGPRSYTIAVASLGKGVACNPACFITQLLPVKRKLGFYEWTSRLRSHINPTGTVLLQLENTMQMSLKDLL", "in_short": "(§1)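 Each disease-causing α-Gal A variant, expressed transiently in HEK-293 cells, was treated plus or minus migalastat from 17 nM up to 1 mM during 4 to 5 days; lysates were assayed for α-Gal A using 4-MU-α-Gal fluorescence or western blotting.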"}, "[2]": {"molecular_target": "T2, α-Gal A mutant form p.Arg112His (c.335 G > A) (Homo sapiens, UniProt P06280, R112H)", "T2 construct": "expressed in transfected cells; host or cells: HEK-293", "T2 sequence (P06280 32-429 R112H)": "T1 sequence (P06280 32-429 P259R) with R81H, R228P", "in_short": "as §1"}, "[3]": {"molecular_target": "T3, α-Gal A mutant form p.Tyr216Cys (c.647 A > G) (Homo sapiens, UniProt P06280, Y216C)", "T3 construct": "expressed in transfected cells; host or cells: HEK-293", "T3 sequence (P06280 32-429 Y216C)": "T1 sequence (P06280 32-429 P259R) with Y185C, R228P", "in_short": "as §1"}, "[4]": {"molecular_target": "T4, α-Gal A mutant form p.Pro205Thr (c.613 C > A) (Homo sapiens, UniProt P06280, P205T)", "T4 construct": "expressed in transfected cells; host or cells: HEK-293", "T4 sequence (P06280 32-429 P205T)": "T1 sequence (P06280 32-429 P259R) with P174T, R228P", "in_short": "as §1"}, "[5]": {"molecular_target": "T5, α-Gal A mutant form p.Met284Thr (c.851 T > C) (Homo sapiens, UniProt P06280, M284T)", "T5 construct": "expressed in transfected cells; host or cells: HEK-293", "T5 sequence (P06280 32-429 M284T)": "T1 sequence (P06280 32-429 P259R) with R228P, M253T", "in_short": "as §1"}, "[6]": {"details": "+10 μM migalastat, HEK-293 cell lysate, mean ± SEM, n = 20"}, "[7]": {"details": "HEK293, 10 μM migalastat minus baseline, read-out: Absolute increase at 10 μM (% WT)"}},
  "note": "Where a chain is given by its changes, count along the chain named.",
  "data": [
    {"smiles": "OC[C@H]1NC[C@H](O)[C@@H](O)[C@H]1O", "note": "[migalastat]", "values": [
      {"measurement": "α-Gal A activity at 10 μM (fold over baseline)", "setting": "[1]; 10 μM migalastat", "value": 2.64, "unit": "fold over baseline"},
      {"measurement": "+Migalastat α-Gal A activity", "setting": "[1]; [6]", "value": "17645 ± 515", "unit": "nmol/mg/h"},
      {"measurement": "+Migalastat α-Gal A activity % WT", "setting": "[1]; [6]", "value": "60.3 ± 3.8", "unit": "% WT"},
      {"measurement": "activation at 10 µM", "setting": "[1]; [7]", "value": 37, "unit": "%"},
      {"measurement": "α-Gal A activity at 10 μM (fold over baseline)", "setting": "[2]; 10 μM migalastat", "value": 6.61, "unit": "fold over baseline"},
      {"measurement": "+Migalastat α-Gal A activity", "setting": "[2]; [6]", "value": "5583 ± 215", "unit": "nmol/mg/h"},
      {"measurement": "+Migalastat α-Gal A activity % WT", "setting": "[2]; [6]", "value": "17.4 ± 0.8", "unit": "% WT"},
      {"measurement": "activation at 10 µM", "setting": "[2]; [7]", "value": 14.8, "unit": "%"},
      {"measurement": "α-Gal A activity at 10 μM (fold over baseline)", "setting": "[3]; 10 μM migalastat", "value": 10.40, "unit": "fold over baseline"},
      {"measurement": "+Migalastat α-Gal A activity", "setting": "[3]; [6]", "value": "7003 ± 305", "unit": "nmol/mg/h"},
      {"measurement": "+Migalastat α-Gal A activity % WT", "setting": "[3]; [6]", "value": "20.7 ± 0.8", "unit": "% WT"},
      {"measurement": "activation at 10 µM", "setting": "[3]; [7]", "value": 18.7, "unit": "%"},
      {"measurement": "α-Gal A activity at 10 μM (fold over baseline)", "setting": "[4]; 10 μM migalastat", "value": 3.41, "unit": "fold over baseline"},
      {"measurement": "+Migalastat α-Gal A activity", "setting": "[4]; [6]", "value": "16371 ± 647", "unit": "nmol/mg/h"},
      {"measurement": "+Migalastat α-Gal A activity % WT", "setting": "[4]; [6]", "value": "48.8 ± 2.2", "unit": "% WT"},
      {"measurement": "activation at 10 µM", "setting": "[4]; [7]", "value": 34.4, "unit": "%"},
      {"measurement": "α-Gal A activity at 10 μM (fold over baseline)", "setting": "[5]; 10 μM migalastat", "value": 8.33, "unit": "fold over baseline"},
      {"measurement": "+Migalastat α-Gal A activity", "setting": "[5]; [6]", "value": "5050 ± 268", "unit": "nmol/mg/h"},
      {"measurement": "+Migalastat α-Gal A activity % WT", "setting": "[5]; [6]", "value": "14.3 ± 0.6", "unit": "% WT"},
      {"measurement": "activation at 10 µM", "setting": "[5]; [7]", "value": 12.6, "unit": "%"}
    ]}
  ]
}
